Measured values as given in patent US20140314697A1, “Method for Inhibiting Inflammation and Reducing Melanophilin Expression with Glycine Derivatives And the Composition Thereof” (CORUM INC., priority 2013, published 2014).
Marks after values point to notes of the source that are not given here.

Experiments:
age spot = experiment: Skin whitening test: age spot photography, Reverse Photo Engineering quantitative analysis; format: in vivo, human; settings: for Age Spot Reduction - Reverse Photo Engineering Data, Max % Improvement / Age Spot Reduction - Reverse Photo Engineering Data, % Difference: 0.2% Ac-Gly-β-Ala sample
Description: In this example, the in-vivo skin test is finished by AMA Laboratories USA. The skin color changes are evaluated with Minolta chromameter color computer system. The Age spot photography is evaluated with Reverse Photo Engineering Quantitative Analysis.
In terms of age spot photography, the participants were 5 women aged 38-49 years old, wherein four of the participants were caucasian, and one was Asian. The participants were tested before (baseline), and after using 14, 28, 56 days with high-resolution digital camera, then Reverse Photo Engineering quantitative analysis to perform the age spot change evaluation.

Raw264.7 cells = experiment: Cell viability on Raw264.7; format: cell-based, Murine; settings: for cell viability on Raw264.7, Entry 2: passage N + 5; for cell viability on Raw264.7, Entry 2 / cell viability on Raw264.7, Entry 3 / cell viability on Raw264.7, Entry 1 / cell viability on Raw264.7, Average: with LPS & IFN-r, Positive Control 100%; for cell viability on Raw264.7, Entry 3: passage N + 6; for cell viability on Raw264.7, Entry 1: passage N + 7
Description: (§1) 4.4. Cell Viability is Tested by Neutral Red Uptake Experience or MTT Assay.

[1] = system: Human IL-6 secretion, Normal Human Epidermal Keratinocytes (NHEK); experiment: Human IL-6 production in UVB-irradiated NHEK (ELISA); format: cell-based; settings: for Human IL-6 Content, Average: 40 mJ/cm^2 UVB; for Human IL-6 Content, Average / Human IL-6 Content, Entry 1 / Human IL-6 Content, Entry 2 / Human IL-6 Content, Entry 3 / Human IL-6 Content, Entry4: Positive Control 100%; for Human IL-6 Content, Entry 1 / Human IL-6 Content, Entry 2: passage 2 + 2, 40 mJ/cm^2 UVB; for Human IL-6 Content, Entry 3 / Human IL-6 Content, Entry4: passage 2 + 3, 40 mJ/cm^2 UVB
Description: (§2) Normal Human Epidermal Keratinocytes (NHEK) (PromoCell No. C-12008);
(§3) Positive Control: 40 mJ/cm^2 UVB,
(§4) Negative Control: No UVB irradiation;
(§5) a. Rinse the confluent NHEK cells with sterile D-PBS then trypsinize all cells and perform cell counting.
(§6) b. Dilute the cell density to 4˜8E+04/mL and seed 0.5 mL cell liquid (equals to 2˜4E+04 cells) each well in 24 well plate.
(§7) c. Incubate NHEK cells at 37° C., 5% CO2 until subconfluence.
(§8) d. Prepared dosing solution of testing material in Complete Medium: 0.4%, 0.2%, 0.1%, 0.05%.
(§9) e. Rinse the NHEK cells with sterile D-PBS and discard rinse buffer. Add 400 μL of controls and testing materials in different concentrations into NHEK cells in 24 well plates.
(§10) f. Pre-incubate NHEK cells with testing material at 37° C., 5% CO2 for about 6 hours.
(§11) g. After pre-incubating for about 6 hours, wash the NHEK cells with sterile D-PBS for twice then add […] sterile D-PBS for UVB irradiation.
(§12) h. UVB intensity is about 2300 μW/cm^2 and UVB energy is about 40 mJ/cm^2.
(§13) i. After UVB irradiation, discard sterile D-PBS and wash again. Add 400 μL of the same dosing solution in to each wells.
(§14) j. Post-incubate at 37° C., 5% CO2 for about 18 hours.
(§15) k. After post-incubating for 18 hours, collect the supernatant of controls and testing materials.
(§16) l. Determine the IL-6/IL-8 content of the supernatant by R&D ELISA kit as mentioned previously.
(§17) Normal Human Epidermal Keratinocytes (NHEK) were treated by the above-mentioned glycine derivatives for evaluating their anti-inflammatory effect on keratinocytes in this example.

[2] = system: Human IL-8 secretion, Normal Human Epidermal Keratinocytes (NHEK); experiment: Human IL-8 production in UVB-irradiated NHEK (ELISA); format: cell-based; settings: for Human IL-8 Content, Average: 40 mJ/cm^2 UVB; for Human IL-8 Content, Average / Human IL-8 Content, Entry 1 / Human IL-8 Content, Entry 2 / Human IL-8 Content, Entry 3: Positive Control 100%; for Human IL-8 Content, Entry 1: passage 2 + 2, 40 mJ/cm^2 UVB; for Human IL-8 Content, Entry 2 / Human IL-8 Content, Entry 3: passage 2 + 3, 40 mJ/cm^2 UVB
Description: as §2, §3, §4, §5, §6, §7, §8, §9, §10, §11, §12, §13, §14, §15, §16, §17

NHEK cells = experiment: Cell viability on NHEK; format: cell-based, Human; settings: for cell viability on NHEK, Average / cell viability on NHEK, Entry 1 / cell viability on NHEK, Entry 2 / cell viability on NHEK, Entry 3: 40 mJ/cm^2 UVB, Positive Control 100%; for cell viability on NHEK, Entry 1: passage 2 + 2; for cell viability on NHEK, Entry 2 / cell viability on NHEK, Entry 3: passage 2 + 3
Description: as §1

Compound: CC(=O)NCC(=O)NCCC(=O)O [Ac-Gly-β-Ala, 3-(2-acetylamino-acetylamino)-propionic acid]
- Age Spot Reduction - Reverse Photo Engineering Data, Max % Improvement (age spot; Day 14): −51.67%
- Age Spot Reduction - Reverse Photo Engineering Data, % Difference (age spot; Day 14 vs baseline): −41.47%*
- Age Spot Reduction - Reverse Photo Engineering Data, Max % Improvement (age spot; Day 28): −80.63%
- Age Spot Reduction - Reverse Photo Engineering Data, % Difference (age spot; Day 28 vs baseline): −63.37%
- Age Spot Reduction - Reverse Photo Engineering Data, Max % Improvement (age spot; Day 56): −87.40%
- Age Spot Reduction - Reverse Photo Engineering Data, % Difference (age spot; Day 56 vs baseline): −73.07%*
- quantitative analyzed data for the age spot change evaluation (age spot; sample containing 0.2% Ac-Gly-β-Ala): significantly decreased
- cell viability on Raw264.7, Entry 2 (Raw264.7 cells; 0.05%): 101%
- cell viability on Raw264.7, Entry 3 (Raw264.7 cells; 0.05%): 89%
- cell viability on Raw264.7, Entry 1 (Raw264.7 cells; 0.05%): 101%
- cell viability on Raw264.7, Average (Raw264.7 cells; 0.05%): 96%
- cell viability on Raw264.7, Entry 2 (Raw264.7 cells; 0.10%): 104%
- cell viability on Raw264.7, Entry 3 (Raw264.7 cells; 0.10%): 87%
- cell viability on Raw264.7, Entry 1 (Raw264.7 cells; 0.10%): 95%
- cell viability on Raw264.7, Average (Raw264.7 cells; 0.10%): 97%
- cell viability on Raw264.7, Entry 2 (Raw264.7 cells; 0.20%): 98%
- cell viability on Raw264.7, Entry 3 (Raw264.7 cells; 0.20%): 91%
- cell viability on Raw264.7, Entry 1 (Raw264.7 cells; 0.20%): 90%
- cell viability on Raw264.7, Average (Raw264.7 cells; 0.20%): 100%
- cell viability on Raw264.7, Entry 2 (Raw264.7 cells; 0.40%): 77%
- cell viability on Raw264.7, Entry 3 (Raw264.7 cells; 0.40%): 89%
- cell viability on Raw264.7, Entry 1 (Raw264.7 cells; 0.40%): 86%
- cell viability on Raw264.7, Average (Raw264.7 cells; 0.40%): 88%
- Cell viability (Raw264.7 cells; Raw264.7, all of dosing solution (0.05-0.4%)): higher than 85%
- IL-6 production, dose dependence ([1]; 0.05%-0.4%, UVB): dose-dependently inhibited
- Human IL-6 Content, Average ([1]; Table 6, 0.05%): 59%
- Human IL-6 Content, Entry 1 ([1]; Table 6, 0.05%): 68%
- Human IL-6 Content, Entry 2 ([1]; Table 6, 0.05%): 58%
- Human IL-6 Content, Entry 3 ([1]; Table 6, 0.05%): 49%
- Human IL-6 Content, Entry4 ([1]; Table 6, 0.05%): 62%
- Human IL-6 Content, Average ([1]; Table 6, 0.10%): 34%
- Human IL-6 Content, Entry 1 ([1]; Table 6, 0.10%): 43%
- Human IL-6 Content, Entry 2 ([1]; Table 6, 0.10%): 25%
- Human IL-6 Content, Entry 3 ([1]; Table 6, 0.10%): 28%
- Human IL-6 Content, Entry4 ([1]; Table 6, 0.10%): 42%
- Human IL-6 Content, Average ([1]; Table 6, 0.20%): 15%
- Human IL-6 Content, Entry 1 ([1]; Table 6, 0.20%): 19%
- Human IL-6 Content, Entry 2 ([1]; Table 6, 0.20%): 10%
- Human IL-6 Content, Entry 3 ([1]; Table 6, 0.20%): 10%
- Human IL-6 Content, Entry4 ([1]; Table 6, 0.20%): 20%
- Human IL-6 Content, Entry 1 ([1]; Table 6, 0.40%): 0%
- Human IL-6 Content, Entry 2 ([1]; Table 6, 0.40%): 0%
- Human IL-6 Content, Entry 3 ([1]; Table 6, 0.40%): 0%
- Human IL-6 Content, Entry4 ([1]; Table 6, 0.40%): 10%
- IL-8 production, dose dependence ([2]; 0.05%-0.4%, UVB): inhibited IL-8 production in dose-dependent manner
- Human IL-8 Content, Average ([2]; Table 7, 0.05%): 97%
- Human IL-8 Content, Entry 1 ([2]; Table 7, 0.05%): 107%
- Human IL-8 Content, Entry 2 ([2]; Table 7, 0.05%): 81%
- Human IL-8 Content, Entry 3 ([2]; Table 7, 0.05%): 103%
- Human IL-8 Content, Average ([2]; Table 7, 0.10%): 80%
- Human IL-8 Content, Entry 1 ([2]; Table 7, 0.10%): 76%
- Human IL-8 Content, Entry 2 ([2]; Table 7, 0.10%): 70%
- Human IL-8 Content, Entry 3 ([2]; Table 7, 0.10%): 93%
- Human IL-8 Content, Average ([2]; Table 7, 0.20%): 69%
- Human IL-8 Content, Entry 1 ([2]; Table 7, 0.20%): 77%
- Human IL-8 Content, Entry 2 ([2]; Table 7, 0.20%): 72%
- Human IL-8 Content, Entry 3 ([2]; Table 7, 0.20%): 59%
- Human IL-8 Content, Entry 1 ([2]; Table 7, 0.40%): 10%
- Human IL-8 Content, Entry 2 ([2]; Table 7, 0.40%): 5%
- Human IL-8 Content, Entry 3 ([2]; Table 7, 0.40%): 13%
- cell viability on NHEK, Average (NHEK cells; 0.01%): 80%
- cell viability on NHEK, Entry 1 (NHEK cells; 0.01%): 80%
- cell viability on NHEK, Entry 2 (NHEK cells; 0.01%): 82%
- cell viability on NHEK, Entry 3 (NHEK cells; 0.01%): 76%
- cell viability on NHEK, Average (NHEK cells; 0.03%): 84%
- cell viability on NHEK, Entry 1 (NHEK cells; 0.03%): 88%
- cell viability on NHEK, Entry 2 (NHEK cells; 0.03%): 80%
- cell viability on NHEK, Entry 3 (NHEK cells; 0.03%): 83%
- cell viability on NHEK, Average (NHEK cells; 0.05%): 93%
- cell viability on NHEK, Entry 1 (NHEK cells; 0.05%): 93%
- cell viability on NHEK, Entry 2 (NHEK cells; 0.05%): 90%
- cell viability on NHEK, Entry 3 (NHEK cells; 0.05%): 95%
- cell viability on NHEK, Average (NHEK cells; 0.10%): 108%
- cell viability on NHEK, Entry 1 (NHEK cells; 0.10%): 109%
- cell viability on NHEK, Entry 2 (NHEK cells; 0.10%): 103%
- cell viability on NHEK, Entry 3 (NHEK cells; 0.10%): 110%
- cell viability on NHEK, Average (NHEK cells; 0.20%): 109%
- cell viability on NHEK, Entry 1 (NHEK cells; 0.20%): 106%
- cell viability on NHEK, Entry 2 (NHEK cells; 0.20%): 107%
- cell viability on NHEK, Entry 3 (NHEK cells; 0.20%): 113%
- cell viability on NHEK, Average (NHEK cells; 0.40%): 93%
- cell viability on NHEK, Entry 1 (NHEK cells; 0.40%): 106%
- cell viability on NHEK, Entry 2 (NHEK cells; 0.40%): 95%
- cell viability on NHEK, Entry 3 (NHEK cells; 0.40%): 79%
- Cell viability (NHEK cells; NHEK, all of dosing solution): higher than 80%
